Data reported in patent US20250195598A1, “FLAVONOID ACTIVE FRACTION OF AN ABELMOSCHI COROLLA, PREPARATION METHOD AND APPLICATION THEREOF” (SUZHONG PHARMACEUTICAL GROUP CO., LTD., priority 2022, published 2025).

Assays:
[1] = compounds having five hydroxyl groups; cited from earlier work
[2] = compared with the control group; cited from earlier work
[3] = test system: Kunming mice; experiment: bleomycin-induced idiopathic pulmonary fibrosis; type: in vivo; settings: HE staining, four grades, 28 days; Rosiglitazone 5 mg/kg, samples 70 mg/kg, Huangkui Capsule 180 mg/kg based on the extract
Method: Experimental animals: 60 Kunming mice, half male and half female, 18 g to 22 g weight, clean grade.
Animal groups: the mice were randomly divided into 6 groups, which comprise a normal group, a model group, a drug control group (5 mg/kg of Rosiglitazone), a sample group prepared by the method of Embodiment 2-A3 (70 mg/kg), a sample group prepared by the method of Embodiment 9.2 (70 mg/kg) and a Huangkui Capsule sample group (180 mg/kg based on the extract), with 10 mice in each group.
Experimental modeling: after 3 days of adaptive feeding, the experimental mice were anesthetized by intraperitoneal injection with 4% chloral hydrate (0.01 ml/g). Taking a supine fixed position, routine disinfection was carried out, a median cervical incision was made, and a trachea was exposed by passive separation. The model group, the control group and the treatment group were slowly injected with bleomycin (5 mg/kg) into a space between tracheal cartilaginous rings, and the normal control group was injected with the same volume of normal saline. The mice were immediately rotated upright for 3 minutes to 5 minutes after the injection, so that the liquid medicine was evenly distributed in both lungs, then skin of the mice was sutured and disinfected at a suture, and the mice after waking were sent to a clean grade observation room for feeding. […]

[4] = test system: db/db mice; experiment: db/db mice diabetic kidney disease model; type: in vivo; settings: samples 62.4 mg/kg, Dapagliflozin tablet 45.5 mg/kg
Method: Animal model: db/db mice, 16 weeks old, and C57 BL/6 mice, 16 weeks old. Administration mode: intragastric administration. Experimental modeling: the db/db mice were raised for 17 weeks, and then urine protein was detected. When there were urine protein and renal function abnormality, the modeling was successful for later experiment. Experimental groups: there were a normal group of the C57 BL/6 mice, a model group of the db/db mice, a positive drug group (Dapagliflozin tablet, 45.5 mg/kg), a sample group prepared by the method of Embodiment 3-1 (62.4 mg/kg), a sample group prepared by the method of Embodiment 9.1 (62.4 mg/kg), and a sample group prepared by the method of Embodiment 2-A3 (62.4 mg/kg). There were 6 groups in total, with 15 mice in each group. After 4 weeks of administration, urine protein, urine creatinine and a daily food intake were detected, and a mouse state was observed.

[5] = test system: diabetic kidney disease model, C57BL/6 mice; experiment: streptozotocin (STZ)+high-fat-fed diabetic kidney disease model; type: in vivo; settings: samples 62.4 mg/kg, Dapagliflozin tablet 45.5 mg/kg
Method: Administration method: intragastric administration. Experimental modeling: after 3 days of adaptive feeding, the experimental mice were fed with high-fat and high-sugar feed (made by laboratory according to a formula of lard:sucrose:yolk:basic feed=18:20:3:59) for 8 consecutive weeks, and then intraperitoneally injected with an STZ sodium citrate solution according to a dosage of 100 mg/kg for 7 consecutive days. […] When the blood glucose was greater than 13.8 mmol/L, and there were urine protein and renal function abnormality, the modeling was successful. Experimental groups: there were a total of 6 groups, comprising a normal group, a model group, a positive drug group (Dapagliflozin tablet, 45.5 mg/kg), a sample group prepared by the method of Embodiment 2-1 (62.4 mg/kg), a sample group prepared by the method of Embodiment 6 (62.4 mg/kg) and a sample group prepared by the method of Embodiment 8 (62.4 mg/kg), with 15 mice in each group. After 4 weeks of administration, urine protein and urine creatinine were detected, and a daily food intake and a mouse state were calculated.

[6] = test system: Brown-Norway rats; experiment: ocular blood flow and choroidal neovascularization after krypton laser photocoagulation; type: in vivo; settings: intragastric, after 4 weeks; Verteporfin 1.35 mg/kg, Embodiment 2-1 69.9 mg/kg, other samples 87.36 mg/kg
Method: Experimental animals: rats, 150 g to 180 g weight, SPF grade, half male and half female.
(§1) Administration mode: intragastric administration.
Experimental modeling: healthy male Brown-Norway rats were selected and anesthetized by intramuscular injection of ketamine (50 mg/kg), pupils of the rats were dilated with a mixed mydriatic of 0.5% tropicamide and neofolin, and 8 points were photocoagulated between great retinal vessels around an optic disc at a distance 2 to 4 disc diameters away from the optic disc under a 120D special front lens by a krypton yellow laser (Lumenis Company in the United States) (wavelength 568 nm, and parameters: spot diameter […], exposure time 0.1 second, and power 150 mW to 200 mW). […]
(§2) Drug groups and administration dosages: there were a normal group, a model group, a positive control drug group (Verteporfin 1.35 mg/kg), a sample group of Embodiment 2-1 (69.9 mg/kg), a sample group of Embodiment 3.1 (87.36 mg/kg), a sample group of Embodiment 7 (87.36 mg/kg), a sample group of Embodiment 9.1 (87.36 mg/kg) and a sample group of Embodiment 9.2 (87.36 mg/kg, solids prepared according to Embodiment 9.2), with 15 rats in each group. After 4 weeks of administration, an inhibition rate of choroidal blood flow and an area of choroidal neovascularization of eyes were detected.

[7] = test system: SD rats; experiment: contrast-induced kidney injury; type: in vivo; settings: intragastric, 4 weeks; Irbesartan 50 mg/kg/d, samples 69.9 or 87.36 mg/kg (groups of b143 differ from the table)
Method: Experimental animals: SD rats, 200 g to 250 g weight, SPF grade, half male and half female.
as §1
Experimental modeling: healthy male SD rats were selected, intramuscularly injected with furosemide (10 ml/kg) first, and then injected with a prostaglandin synthesis inhibitor (indomethacin, 10 mg/kg, dissolved in dimethyl sulfoxide, and diluted with 1.25% of NAHCO3 solution), a nitric oxide synthase inhibitor (N-nitro-L-arginine-methyl ester hydrochloride, L-NAME, 10 mg/kg, dissolved in 0.9% of NaCl solution) and 76% of meglumine diatrizoate by tail vein every 15 minutes.
In animal models, the increase of serum creatinine exceeding the baseline by 50% was often used as the diagnostic criterion of acute kidney injury, that was, the success criterion of modeling.
as §2, with “(Irbesartan 50 mg/kg/d),” for “(Verteporfin 1.35 mg/kg),”, “mg/kg, the” for “mg/kg,”, “After 4 weeks of administration, an inhibition rate of choroidal blood flow and an area of choroidal neovascularization of eyes were detected.” left out

[8] = test system: MRL/lpr mice; experiment: lupus erythematosus nephritis; type: in vivo; settings: Dexamethasone 1 mg/kg, Embodiment 2-B 69.9 mg/kg, other samples 87.36 mg/kg
From the text: 26 male MRL/lpr mice (lupus erythematosus nephritis mice) were selected as an observation group 1, with 18 g to 22 g weight and 13 weeks old, which were purchased from Nanjing Junke Bioengineering Co., Ltd., and 24 male C57BL/6 mice were selected as a normal group, with 18 g to 22 g weight and 13 weeks old, which were purchased from Wuhan Hualianke Biotechnology Co., Ltd.
The mice were administrated for 4 weeks.
After administration, 24-hour urine was collected to detect urine protein. After the urine was collected, eyeballs of all the mice were taken for blood collection, and the collected blood was centrifuged to obtain serum for antinuclear antibody detection. Meanwhile, kidneys of the mice were taken out, quickly frozen in liquid nitrogen, and stored in a refrigerator at −80° C. for kidney immune detection.

O=c1c(O)c(-c2ccc(O)c(O)c2)oc2cc(O)cc(O)c12 [quercetin]
effect on ocular blood flow [1]: negative effect

OC[C@H]1O[C@@H](c2ccc(F)c(Cc3cc4ccccc4s3)c2)[C@H](O)[C@@H](O)[C@@H]1O [Ipragliflozin]
serum uric acid level [2]: significantly reduces

CCOc1ccc(Cc2cc([C@@H]3S[C@H](CO)[C@@H](O)[C@H](O)[C@H]3O)c(OC)cc2C)cc1 [Luseogliflozin]
serum uric acid level [2]: significantly reduces

CN(CCOc1ccc(CC2SC(=O)NC2=O)cc1)c1ccccn1 (stereo not drawn) [Rosiglitazone]
Degree of pulmonary alveolitis [3]: 1.03 ± 0.49
Degree of pulmonary fibrosis [3]: 1.15 ± 0.81

CCOc1ccc(Cc2cc([C@@H]3O[C@H](CO)[C@@H](O)[C@H](O)[C@H]3O)ccc2Cl)cc1 [Dapagliflozin tablet, Dapagliflozin]
Urine albumin-to-creatinine ratio/ ([4]; intragastric, after 4 weeks): 1.17 ± 1.26
Urine protein/mg ([4]; intragastric, after 4 weeks): 15.09 ± 10.27 mg
Abdominal distension/number of mice ([4]; of 15 mice per group, 4 weeks): 0 number of mice
Diarrhea/number of mice ([4]; of 15 mice per group, 4 weeks): 0 number of mice
Urine albumin-to-creatinine ratio ([5]; intragastric, after 4 weeks of administration): 1.04 ± 1.09
Urine protein/mg ([5]; intragastric, after 4 weeks of administration, 15 mice per group): 17.51 ± 12.34 mg
Abdominal distension/number of mice ([5]; of 15 mice per group, 4 weeks): 0 number of mice
Diarrhea/number of mice ([5]; of 15 mice per group, 4 weeks): 0 number of mice

Cc1ccc([C@@H]2O[C@H](CO)[C@@H](O)[C@H](O)[C@H]2O)cc1Cc1ccc(-c2ccc(F)cc2)s1 [Canagliflozin]
serum uric acid level [2]: significantly reduces

Verteporfin
Area of choroidal angiogenesis/μm^2 [6]: 19.80 ± 1.23^# μm^2
Ocular choroidal blood flow inhibition ratio [6]: 87.98 ± 11.23

CCCCC1=NC2(CCCC2)C(=O)N1Cc1ccc(-c2ccccc2-c2nnn[nH]2)cc1 [Irbesartan]
Serum creatinine [7]: 16.67 ± 1.23
Serum urea nitrogen [7]: 3.01 ± 0.98

OC[C@H]1O[C@@H](c2ccc(Cl)c(Cc3ccc(O[C@H]4CCOC4)cc3)c2)[C@H](O)[C@@H](O)[C@@H]1O [Empagliflozin]
serum uric acid level [2]: significantly reduces

CCc1ccc(Cc2ccc3c(c2)[C@]2(OC3)O[C@H](CO)[C@@H](O)[C@H](O)[C@H]2O)cc1 [Tofogliflozin]
serum uric acid level [2]: significantly reduces

C[C@@H]1C[C@H]2[C@@H]3CCC4=CC(=O)C=C[C@]4(C)[C@@]3(F)[C@@H](O)C[C@]2(C)[C@@]1(O)C(=O)CO [Dexamethasone]
Urine protein ([8]; 24-hour urine after 4 weeks): 11.67 ± 3.45
C3 level of kidney ([8]; kidney tissue after 4 weeks): 1.21 ± 0.67
IgG level of kidney ([8]; kidney tissue after 4 weeks): 1.32 ± 0.67
Logarithm of antinuclear antibody titers ([8]; serum after 4 weeks): 0.81 ± 0.11
